Experimental data taken from patent US20230049952A1, “METHODS AND COMPOUNDS FOR RESTORING MUTANT P53 FUNCTION” (PMV Pharmaceuticals, Inc., priority 2020, published 2023).
Read-outs that look alike come from different tables or passages of the source.

Assays:
human hepatocytes = assay: cell viability (MTS) after CYP induction treatment of human hepatocytes; details: after CYP1A2 induction treatment
Protocol: Cell Viability Assay: After the CYP induction treatment and enzyme activity assay, the cells were used for a cell viability assay. The viability of cells, expressed as the percentage of MTS absorbance relative to vehicle control, was measured as described above.

p53 in SJSA1 = assay: p53 (DO-1) Western blot; type: cell-based, human; details: SJSA1 + RG7388 50 nM, 24 hr
Protocol: (§1) Protein samples were quantified using BCA.
(§2) Western blot: For each cell line, 10 μg of total protein were run on a 4-12% Bis-Tris precast gel. The gel was transferred to a nitrocellulose membrane. The membrane was blocked for 1 hour using the Odyssey TBS blocking solution. Membranes were incubated overnight in p53 (p53, DO-1) and actin (beta-actin) primary antibodies. The next day, blots were washed and incubated in either goat anti-mouse for p53 or goat-anti-rabbit for actin secondaries antibodies. Blots were then washed and imaged using an Odyssey CLx imaging system. Bands were quantified using Image Studio software and normalized to the actin control. The p53 or actin levels were then normalized to the NUGC3 band and graphed using Prism.
(§3) Since p53 protein pools are strongly autoregulated by degradation by the transcriptional target MDM2, pools of p53 accumulate to high levels in cells with mutant p53.

p53 in HCT116 = assay: p53 (DO-1) Western blot; type: cell-based, human; details: HCT116 + RG7388 50 nM, 24 hr
Protocol: as §1, §2, §3

[1] = test system: CYP enzymes in human liver microsomes; details: HLM, probe S-Mephenytoin 25 μM
Protocol: Pooled HLM were stored at −80° C. until use. […] The reaction was initiated by adding NADPH, followed by incubation at 37° C.
Corrected CLint=Raw CLint−Negative Control CLint; Δ CLint=CLHint(TA+NADPH−Inhibitor)−CLint (TA+NADPH+Inhibitor).

OATP1B1 = target: T1, OATP1B1 (Homo sapiens, UniProt Q9Y6L6); assay: uptake transporter inhibition assessment, transfected HEK293; details: inhibitor 10 μM
T1 sequence (Q9Y6L6 1-691): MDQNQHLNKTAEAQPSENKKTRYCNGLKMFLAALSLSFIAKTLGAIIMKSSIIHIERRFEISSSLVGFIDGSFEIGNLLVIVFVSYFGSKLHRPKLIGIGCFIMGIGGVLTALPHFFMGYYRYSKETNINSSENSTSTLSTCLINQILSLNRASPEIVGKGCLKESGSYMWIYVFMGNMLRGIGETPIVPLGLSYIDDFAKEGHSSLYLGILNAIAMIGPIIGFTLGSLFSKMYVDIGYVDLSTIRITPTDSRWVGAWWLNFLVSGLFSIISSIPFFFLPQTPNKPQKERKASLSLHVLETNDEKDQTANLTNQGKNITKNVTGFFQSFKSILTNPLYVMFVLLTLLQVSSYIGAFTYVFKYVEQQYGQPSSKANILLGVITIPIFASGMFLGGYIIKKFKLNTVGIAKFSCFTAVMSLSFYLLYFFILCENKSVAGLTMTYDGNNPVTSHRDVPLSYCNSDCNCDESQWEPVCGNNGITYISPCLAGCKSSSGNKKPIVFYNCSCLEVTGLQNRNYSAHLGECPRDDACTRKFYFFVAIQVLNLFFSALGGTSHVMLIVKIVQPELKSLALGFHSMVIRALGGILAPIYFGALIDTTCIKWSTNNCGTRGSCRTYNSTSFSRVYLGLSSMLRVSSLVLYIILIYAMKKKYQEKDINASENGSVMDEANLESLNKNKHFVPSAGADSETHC

OATP1B3 = target: T2, OATP1B3 (Homo sapiens, UniProt Q9NPD5); assay: as above; details: inhibitor 10 μM
T2 sequence (Q9NPD5 1-702): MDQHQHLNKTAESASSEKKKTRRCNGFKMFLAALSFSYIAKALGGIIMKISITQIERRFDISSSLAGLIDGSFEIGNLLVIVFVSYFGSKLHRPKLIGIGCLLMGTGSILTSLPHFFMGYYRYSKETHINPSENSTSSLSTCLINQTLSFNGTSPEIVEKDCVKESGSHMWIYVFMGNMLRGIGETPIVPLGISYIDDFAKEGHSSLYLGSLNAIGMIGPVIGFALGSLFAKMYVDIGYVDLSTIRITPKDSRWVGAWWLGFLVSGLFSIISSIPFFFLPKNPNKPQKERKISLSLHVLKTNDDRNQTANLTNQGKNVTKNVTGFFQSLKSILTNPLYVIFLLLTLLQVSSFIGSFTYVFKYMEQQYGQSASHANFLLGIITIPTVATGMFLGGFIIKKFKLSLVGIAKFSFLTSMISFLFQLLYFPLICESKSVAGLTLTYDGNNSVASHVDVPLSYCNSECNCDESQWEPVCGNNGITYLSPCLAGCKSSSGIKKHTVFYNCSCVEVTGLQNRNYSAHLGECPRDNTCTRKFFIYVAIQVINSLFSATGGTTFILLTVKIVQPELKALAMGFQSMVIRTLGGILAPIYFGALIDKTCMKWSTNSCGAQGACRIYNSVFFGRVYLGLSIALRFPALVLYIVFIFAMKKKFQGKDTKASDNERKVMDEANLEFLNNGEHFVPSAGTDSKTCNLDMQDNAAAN

[2] = +NADPH −Inhibitor, Maximum Metabolism
[3] = −NADPH −Inhibitor, Negative Control

Structure (SMILES): COc1ccc2[nH]c([S+]([O-])Cc3ncc(C)c(OC)c3C)nc2c1 (stereo not drawn) [OME]
- Formazan Absorbance (n = 3) Mean (human hepatocytes; Donor 1, 50 μM): 0.494
- Formazan Absorbance (n = 3) Mean (human hepatocytes; Donor 2, 50 μM): 0.800
- Formazan Absorbance (n = 3) Mean (human hepatocytes; Donor 3, 50 μM): 0.433

Structure (SMILES): COc1cc(C(=O)O)ccc1NC(=O)[C@@H]1N[C@@H](CC(C)(C)C)[C@](C#N)(c2ccc(Cl)cc2F)[C@H]1c1cccc(Cl)c1F [RG7388]
- DO1/Actin (p53 in SJSA1): 0.008
- DO1 band density (p53 in SJSA1): 94.5
- normalized DO1/Actin (p53 in SJSA1; normalized to NUGC3): 0.068
- DO1/Actin (p53 in HCT116): 0.065
- DO1 band density (p53 in HCT116): 1300
- normalized DO1/Actin (p53 in HCT116; normalized to NUGC3): 0.524

Structure (SMILES): CC[C@@]1(c2ccccc2)NC(=O)N(C)C1=O [S-Mephenytoin]
- Formation Rate (4′-OH Mephenytoin) [1, 2]: 39.8 pmol/min/mg protein
- Measured Metabolite (4′-OH Mephenytoin) [1, 2]: 0.398 µM
- Formation Rate (4′-OH Mephenytoin) [1, 3]: 0 pmol/min/mg protein
- Measured Metabolite (4′-OH Mephenytoin) [1, 3]: 0 µM

Structure (SMILES): CO[C@H]1/C=C/O[C@@]2(C)Oc3c(C)c([O-])c4c(O)c(cc(O)c4c3C2=O)NC(=O)/C(C)=C\C=C\[C@H](C)[C@H](O)[C@@H](C)[C@@H](O)[C@@H](C)[C@H](OC(C)=O)[C@@H]1C.[Na+] [Rifamycin SV]
- Inhibition Potential Classification (OATP1B1): Positive (Percent inhibition≥50%: Positive)
- Percent Inhibition (OATP1B1; probe Atorvastatin ([…])): 94.8
- Influx Rate AVG (OATP1B1; probe Atorvastatin ([…]), OATP1B1-transfected HEK cells): 1.12 pmol/minute/mg protein
- Influx Rate AVG (OATP1B1; probe Atorvastatin ([…]), Vector Control cells): 0.769 pmol/minute/mg protein
- Inhibition Potential Classification (OATP1B3): Positive (Percent inhibition≥50%: Positive)
- Percent Inhibition (OATP1B3; probe atorvastatin (0.1 μM per TABLE 176)): 94.8
- Influx Rate AVG (OATP1B3; probe atorvastatin (0.1 μM per TABLE 176), OATP1B3-transfected HEK cells): 0.991 pmol/minute/mg protein
- Influx Rate AVG (OATP1B3; probe atorvastatin (0.1 μM per TABLE 176), Vector Control cells): 0.769 pmol/minute/mg protein
